How the values were obtained:
[1] = In vitro cytotoxicity, BJ fibroblasts (normal cells); type: cell-based; conditions: human, CellTiter-Glo 2.0
Method: (§1) All cells were cultivated in RPMI medium 1640 (IX). All media was supplemented with 10 μg/μl penicillin/streptomycin, 10% heat inactivated FBS, 0.1 mM Sodium Pyruvate, 1×MEM NEAA (ThermoFisher) and 1 mM HEPES. The DERL-2 cells had higher FBS (20%) and 40 ng/mL IL-2 was added. hPBMCs were thawed and allowed to acclimatise overnight and then stimulated with 10 μg/mL PHA-M and 40 ng/mL IL-2 for 4 hours before being exposed to test compounds. All cells, except for hPBMCs, were grown to reach log phase before being exposed to the test compounds.
(§2) Test compounds were dissolved in 100% DMSO and added to a 384 assay plate. Additional DMSO was added to maintain the same final DMSO concentration (0.2%) in all wells. 25 μL cell suspension with a concentration of 100000 cells/mL was added to each well. The cells were cultured in a CO2 incubator at 37° C. for 72 h. Plates were equilibrated to room temperature for 30 minutes before adding 20 μL CellTiter-Glo® 2.0 (Promega) reagent to all wells. The plate was then allowed to stabilize for 20 minutes before recording the luminescence (Em filter 700 nm) in an Envision plate reader.

MM.1S cells = experiment: Cellular retention/efflux: intracellular and extracellular concentrations by LC-MS/MS; type: in vitro ADME, human
Method: Methods: MMA1S cells at 2×10^6 cells/mL were seeded at 250 μL per well in a 96-well plate. Cells were incubated in the presence of a test compound for 5, 15, and 60 min before pelleting cells by centrifugation at +4° C. for 5 min. Cell media was immediately harvested to a second plate and stored at −80° C. until further analysis. Pelleted cells were washed once with ice cold PBS before storage at −80° C. until further analysis.
Cells were lysed and protein in the media were precipitated using acetonitrile dimethylformamide, 9:1 containing internal standard. Samples were centrifuged and the supernatant was analyzed with LC-MS/MS (ACQUITY UPLC-Xevo TQ-S micro) to determine compound concentration.
Example compound 1, bendamustine and melphalan were used as test compounds.
Method: Method described in Biological example 3.
Example compounds 1, 2, 3, 4, 6, 7 and 10 were investigated. Intracellular metabolites are formed from all compounds tested. The compound used for cell treatment was metabolised to the ester-hydrolysed compound (here called Metabolite A) and to the amide-hydrolysed compound (called Metabolite B). The example compound structures and the structures of the two metabolites for the respective compounds were as shown in Table 4. The Metabolites B formed under the conditions tested were compounds with structure as Examples 17 and 18: […]

SUP-T1 = experiment: In vitro cytotoxicity, SUP-T1 (T cell Lymphoma); type: cell-based; conditions: Homo sapiens, SUP-T1, 72 h, read-out: Cytotoxicity IC50, SUP-T1
Method: as §1, §2

SU-DHL-8 = experiment: In vitro cytotoxicity, SU-DHL-8 (B-cell non-Hodgkin Lymphoma); type: cell-based; conditions: Homo sapiens, SU-DHL-8, 72 h, read-out: Cytotoxicity IC50, SU-DHL-8
Method: as §1, §2

DOHH-2 = experiment: In vitro cytotoxicity, DOHH-2 (B Cell Lymphoma); type: cell-based; conditions: Homo sapiens, DOHH-2, 72 h, read-out: Cytotoxicity IC50, DOHH-2
Method: as §1, §2

Toledo = experiment: In vitro cytotoxicity, Toledo (Diffuse Large B Cell Lymphoma); type: cell-based; conditions: Homo sapiens, 72 h, read-out: Cytotoxicity IC50, Toledo
Method: as §1, §2

U937 = experiment: In vitro cytotoxicity, U937 (Histiocytic Lymphoma); type: cell-based; conditions: Homo sapiens, U-937, 72 h, read-out: Cytotoxicity IC50, U937
Method: as §1, §2

SK-MM-1 = experiment: In vitro cytotoxicity, SK-MM-1 (Plasma Cell Leukemia); type: cell-based; conditions: Homo sapiens, 72 h, read-out: Cytotoxicity IC50, SK-MM-1
Method: as §1, §2

KMS-12-BM = experiment: In vitro cytotoxicity, KMS-12-BM (Multiple Myeloma); type: cell-based; conditions: Homo sapiens, 72 h, read-out: Cytotoxicity IC50, KMS-12-BM
Method: as §1, §2

SC-1 = experiment: In vitro cytotoxicity, SC-1 (B cell Lymphoma); type: cell-based; conditions: Homo sapiens, SC-1, 72 h, read-out: Cytotoxicity IC50, SC-1
In short: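 Compounds in DMSO were plated, DMSO normalised to 0.2% final, and log-phase cells added at 100000 cells/mL. Plates were incubated 72 h at 37 °C, equilibrated to room temperature, then CellTiter-Glo 2.0 was added and luminescence recorded.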

[2] = tested on: SU-DHL-4 human lymphoma cell line; experiment: In ovo chicken embryo xenograft model, tumour weight; type: in vivo; conditions: 100 μL injected day 11, 13, 15, 17, tumours weighed day 18
Method: Methods: Inoculation of Fertilized White Leghorn eggs was performed with 3×10^6 SU-DHL-4 tumour cells on day 9 (post-fertilisation). Viable eggs were injected with 100 μL of either Example compound 1 (8.4 uM (0.008 mg/kg), 33.5 uM (0.033 mg/kg), 167.5 uM (0.164 mg/kg)), bendamustine (8.4 uM (0.005 mg/kg), 33.5 uM (0.02 mg/kg), 167.5 uM (0.1 mg/kg)) or vehicle on day 11, 13, 15 and 17. On day 18, tumours were removed and weighed.

SMILES | IC50 at 72 h [1] [nM] | Intracellular concentration (in words) (MM.1S cells; MM.1S cells incubated with test compound 5, 15, 60 min, metabolites measured after treatment with the parent Example compound) | Extracellular concentration (in words) (MM.1S cells; media of MM.1S cells incubated with test compound 5, 15, 60 min, metabolites measured after treatment with the parent Example compound) | IC50 (SUP-T1) [nM] | IC50 (SU-DHL-8) [nM] | IC50 (DOHH-2) [nM] | IC50 (Toledo) [nM] | IC50 (U937) [nM] | IC50 (SK-MM-1) [nM] | IC50 (KMS-12-BM) [nM] | IC50 (SC-1) [nM] | Tumour reduction compared to vehicle ([2]; 33.5 μM) [%] | Tumour reduction compared to vehicle ([2]; 167.5 μM) [%] | Intracellular hydrolysis / formation of metabolites (MM.1S cells; MM.1S cells, 5, 15, 60 min) | Tumour reduction compared to vehicle ([2]; 8.4 μM) [%]
Cn1c(CCCC(=O)O)nc2cc(N(CCCl)CCCl)ccc21 [Bendamustine, bendamustine, reference compound] | > 599000 | Low intracellular concentrations | quite high and decreased overtime | 33500 | 14300 | 10700 | 12500 | 27100 | 73500 | 27500 | 25100 | 30 | 76 |  | 
CCOC(=O)[C@H](CC(C)C)NC(=O)[C@@H](N)CCc1nc2cc(N(CCCl)CCCl)ccc2n1C [Example 1, Ethyl (2S)-2-[[(2S)-2-amino-4-[5-[bis(2-chloroethyl)amino]-1-methyl-benzimidazol-2-yl]butanoyl]amino]-4-methyl-pentanoate] | 1070 |  |  | 12.7 | 19.9 | 4.2 | 4.5 | 9.8 | 34.7 | 7.9 | 13.3 | 70 | 82 | hydrolysis of Example compound 1 took place inside the cells | 38
